Reference: ChEMBL document CHEMBL4359894, “Novel class of 7-Oxabicyclo[2.2.1]heptene sulfonamides with long alkyl chains displaying improved estrogen receptor α degradation activity” (Eur J Med Chem, 2019)

Columns and labels:
[1] = biological target: T1, Estrogen receptor (Homo sapiens) (UniProt P03372); test: Binding affinity to ERalpha (unknown origin) by competitive fluorometric receptor binding assay relative to estradiol
T1 sequence (whole entry): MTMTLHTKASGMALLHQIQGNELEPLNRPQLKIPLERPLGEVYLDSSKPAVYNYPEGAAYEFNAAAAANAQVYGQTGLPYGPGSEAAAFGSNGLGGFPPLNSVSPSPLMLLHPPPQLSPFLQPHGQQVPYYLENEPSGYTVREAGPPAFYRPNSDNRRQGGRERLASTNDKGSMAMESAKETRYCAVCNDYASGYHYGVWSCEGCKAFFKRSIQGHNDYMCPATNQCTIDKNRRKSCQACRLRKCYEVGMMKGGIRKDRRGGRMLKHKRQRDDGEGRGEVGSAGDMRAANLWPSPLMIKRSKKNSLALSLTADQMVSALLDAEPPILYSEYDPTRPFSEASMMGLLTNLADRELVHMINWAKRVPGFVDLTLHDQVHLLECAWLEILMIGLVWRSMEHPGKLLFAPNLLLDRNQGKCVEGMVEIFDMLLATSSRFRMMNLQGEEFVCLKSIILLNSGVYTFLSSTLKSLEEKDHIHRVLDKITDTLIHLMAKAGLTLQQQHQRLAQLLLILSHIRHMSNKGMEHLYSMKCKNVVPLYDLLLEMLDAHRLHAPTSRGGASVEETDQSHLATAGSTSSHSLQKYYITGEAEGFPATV

[2] = biological target: Estrogen receptor beta (Homo sapiens) (UniProt Q92731); test: Binding affinity to ERbeta (unknown origin) by competitive fluorometric receptor binding assay relative to estradiol
MCF7 = test: Antiproliferative activity against human MCF7 cell incubated for 72 hrs by MTT assay; format: functional, cell-based; details: MCF7, 72 h
MCF-10A = test: Cytotoxicity against human MCF10A cell incubated for 72 hrs by MTT assay; format: cell-based
[3] = Therapeutic index, ratio of IC50 for cytotoxicity against human MCF10A cells to IC50 for antiproliferative activity against human MCF7 cells; format: toxicity, cell-based; details: read-out: Ratio IC50

Sequence of Estrogen receptor beta (Homo sapiens) (Q92731 whole entry): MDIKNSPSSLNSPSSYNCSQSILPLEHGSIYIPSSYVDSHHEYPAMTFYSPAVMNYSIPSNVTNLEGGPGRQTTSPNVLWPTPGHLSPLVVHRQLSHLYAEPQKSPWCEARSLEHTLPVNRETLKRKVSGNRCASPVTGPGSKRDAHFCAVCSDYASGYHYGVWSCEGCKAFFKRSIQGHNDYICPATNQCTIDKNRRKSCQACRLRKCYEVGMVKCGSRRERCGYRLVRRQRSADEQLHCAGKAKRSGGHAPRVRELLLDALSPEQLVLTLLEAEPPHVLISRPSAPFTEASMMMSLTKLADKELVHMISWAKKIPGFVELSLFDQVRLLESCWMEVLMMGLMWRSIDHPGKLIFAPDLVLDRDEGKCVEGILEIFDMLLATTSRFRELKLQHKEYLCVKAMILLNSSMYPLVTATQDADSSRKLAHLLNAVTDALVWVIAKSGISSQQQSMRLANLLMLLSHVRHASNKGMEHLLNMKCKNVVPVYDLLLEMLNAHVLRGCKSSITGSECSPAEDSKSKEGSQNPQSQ

| relative binding affinity (RBA) [1] | relative binding affinity (RBA) [2] | IC50 (MCF7) [µM] | Structure (SMILES) | IC50 (MCF-10A) [µM] | selectivity ratio [3] |
| --- | --- | --- | --- | --- | --- |
| 0.06 | 0.15 | > 100 | CCCCCCCCCCCCOc1ccc(C2=C(c3ccc(O)cc3)[C@H]3C[C@H](S(=O)(=O)N(CC(F)(F)F)c4ccc(OC)cc4)[C@@H]2O3)cc1 (relative stereo) | > 100 | – |
| 4.14 | 0.04 | 2.89 | CCCCCCOc1ccc(C2=C(c3ccc(O)cc3)[C@H]3C[C@H](S(=O)(=O)N(CC(F)(F)F)c4ccc(Cl)cc4)[C@@H]2O3)cc1 (relative stereo) | 57.5 | 19.8 |
| 3.26 | 0.05 | 3.29 | CCCCOc1ccc(C2=C(c3ccc(O)cc3)[C@H]3C[C@H](S(=O)(=O)N(CC)c4ccccc4)[C@@H]2O3)cc1 (relative stereo) | 59.2 | 17.9 |
| 1.13 | 0.16 | 3.22 | CCCCOc1ccc(C2=C(c3ccc(O)cc3)[C@H]3O[C@@H]2C[C@@H]3S(=O)(=O)N(CC(F)(F)F)c2ccc(Cl)cc2)cc1 (relative stereo) | 47.4 | 14.7 |
| 0.57 | 0.01 | 21.2 | CCCCCCCCCCOc1ccc(C2=C(c3ccc(O)cc3)[C@H]3O[C@@H]2C[C@@H]3S(=O)(=O)N(CC(F)(F)F)c2ccc(Cl)cc2)cc1 (relative stereo) | > 100 | > 4.7 |
| 1.08 | 0.32 | 2.21 | CCCCCCCCOc1ccc(C2=C(c3ccc(O)cc3)[C@H]3C[C@H](S(=O)(=O)N(CC(F)(F)F)c4ccc(OC)cc4)[C@@H]2O3)cc1 (relative stereo) | > 100 | > 45.2 |
| 3.49 | 0.02 | 1.38 | CCCCCCOc1ccc(C2=C(c3ccc(O)cc3)[C@H]3O[C@@H]2C[C@@H]3S(=O)(=O)N(CC(F)(F)F)c2ccc(Cl)cc2)cc1 (relative stereo) | 39.7 | 28.7 |
| 0.25 | 0.11 | 51.2 | CCCCCCCCCCOc1ccc(C2=C(c3ccc(O)cc3)[C@H]3C[C@H](S(=O)(=O)N(CC(F)(F)F)c4ccc(Cl)cc4)[C@@H]2O3)cc1 (relative stereo) | > 100 | > 1.9 |
| 4.25 | 0.05 | 2.95 | CCCCOc1ccc(C2=C(c3ccc(O)cc3)[C@H]3C[C@H](S(=O)(=O)N(CC(F)(F)F)c4ccc(Cl)cc4)[C@@H]2O3)cc1 (relative stereo) | 45.8 | 15.5 |
| 2.36 | 0.04 | 5.22 | CCCCCCCCOc1ccc(C2=C(c3ccc(O)cc3)[C@H]3C[C@H](S(=O)(=O)N(CC(F)(F)F)c4ccc(Cl)cc4)[C@@H]2O3)cc1 (relative stereo) | > 100 | > 19.1 |
| 1.03 | 0.05 | 1.16 | CCCCCCCCOc1ccc(C2=C(c3ccc(O)cc3)[C@H]3O[C@@H]2C[C@@H]3S(=O)(=O)N(CC)c2ccccc2)cc1 (relative stereo) | 34.6 | 29.8 |
| 0.85 | 0.6 | 31.8 | CCCCCCCCCCOc1ccc(C2=C(c3ccc(O)cc3)[C@H]3C[C@H](S(=O)(=O)N(CC(F)(F)F)c4ccc(OC)cc4)[C@@H]2O3)cc1 (relative stereo) | > 100 | > 3.1 |
